Results as given in ChEMBL document CHEMBL1141332, “Cytotoxic metabolites from an Indonesian sponge Lendenfeldia sp” (J Nat Prod, 2007).

Assays:
Type in all cases: functional
MOLT-4 = experiment: Cytotoxicity against human MOLT4 cells
HT-29 = experiment: Cytotoxicity against human HT29 cells
SK-MEL-28 = experiment: Cytotoxicity against human SK-MEL-28 cells
T47D = experiment: Cytotoxicity against human T47D cells
SNB-19 = experiment: Cytotoxicity against human SNB19 cells; details: read-out: Log LC50 (the source's name) (converted)
PC-3 = experiment: Cytotoxicity against human PC3 cells
SF-539 = experiment: Cytotoxicity against human SF539 cells
SW-620 = experiment: Cytotoxicity against human SW620 cells
SF-268 = experiment: Cytotoxicity against human SF268 cells
M14 = experiment: Cytotoxicity against human M14 cells
OVCAR-3 = experiment: Cytotoxicity against human OVCAR-3 cells
[1] = Cytotoxicity against human HS578T cells; details: Hs-578T
SR = experiment: Cytotoxicity against human SR cells
TK-10 = experiment: Cytotoxicity against human TK10 cells
HCT-15 = experiment: Cytotoxicity against human HCT15 cells
NCI/ADR-RES = experiment: Cytotoxicity against human NCI/ADR-RES cells
NCI-H23 = experiment: Cytotoxicity against human NCI-H23 cells
SK-MEL-2 = experiment: Cytotoxicity against human SK-MEL-2 cells
K562 = experiment: Cytotoxicity against human K562 cells
NCI-H522 = experiment: Cytotoxicity against human NCI-H522 cells
IGROV-1 = experiment: Cytotoxicity against human IGROV1 cells
UACC-62 = experiment: Cytotoxicity against human UACC62 cells
HCT-116 = experiment: Cytotoxicity against human HCT116 cells
[2] = read-out: Log LC50 (the source's name) (converted)

For `CC(=O)C1=CC[C@H]2[C@]3(C)CC[C@H]4C(C)(C)CCC[C@]4(C(=O)O)[C@H]3CC(=O)[C@]2(C)[C@H]1C=O`, which GI50 (MOLT-4) is on record?
The GI50 was 0.257 µM.

And the CC50 (MOLT-4; [2])?
The CC50 was 4.47 µM.

And the TGI (MOLT-4; read-out: Log TGI (converted))?
Its TGI is 0.912 µM.

What about the GI50 (HT-29) of the same compound?
Its GI50 is 0.257 µM.

And the CC50 (HT-29; [2])?
Its CC50 is > 100 µM.

What about the TGI (HT-29; read-out: Log TGI (converted)) of the same compound?
The TGI was 1.62 µM.

What about the GI50 (SK-MEL-28) of the same compound?
Its GI50 is 0.355 µM.

And the CC50 (SK-MEL-28; [2])?
Its CC50 is 4.47 µM.

And the TGI (SK-MEL-28; read-out: Log TGI (converted))?
Its TGI is 1.35 µM.

And the GI50 (T47D)?
The GI50 was 1.17 µM.

What about the LC50 (T47D) of the same compound?
The LC50 was 85.1 µM.

What about the TGI (T47D; read-out: Log TGI (converted)) of the same compound?
The TGI was 6.61 µM.

And the CC50 (SNB-19)?
Its CC50 is 3.02 µM.

And the GI50 (PC-3)?
Its GI50 is 0.977 µM.

And the LC50 (PC-3)?
The LC50 was 18.2 µM.

What about the TGI (PC-3; read-out: Log TGI (converted)) of the same compound?
Its TGI is 3.63 µM.

What about the GI50 (SF-539) of the same compound?
The GI50 was 0.741 µM.

What about the CC50 (SF-539; [2]) of the same compound?
Its CC50 is 4.57 µM.

And the TGI (SF-539; read-out: Log TGI (converted))?
Its TGI is 2.04 µM.

And the GI50 (SW-620)?
Its GI50 is 0.324 µM.

And the CC50 (SW-620; [2])?
Its CC50 is 3.39 µM.

What about the TGI (SW-620; read-out: Log TGI (converted)) of the same compound?
The TGI was 1.12 µM.

And the GI50 (SF-268)?
Its GI50 is 1.2 µM.

What about the CC50 (SF-268; [2]) of the same compound?
Its CC50 is 7.24 µM.

What about the TGI (SF-268; read-out: Log TGI (converted)) of the same compound?
Its TGI is 2.95 µM.

And the GI50 (M14)?
Its GI50 is 1.82 µM.

What about the CC50 (M14; [2]) of the same compound?
Its CC50 is 6.92 µM.

What about the TGI (M14; read-out: Log TGI (converted)) of the same compound?
The TGI was 3.55 µM.

And the GI50 (OVCAR-3)?
Its GI50 is 0.295 µM.

What about the CC50 (OVCAR-3; [2]) of the same compound?
Its CC50 is 3.47 µM.

What about the TGI (OVCAR-3; read-out: Log TGI (converted)) of the same compound?
Its TGI is 1.02 µM.

What about the GI50 [1] of the same compound?
Its GI50 is 1.74 µM.

And the LC50 [1]?
Its LC50 is 19.1 µM.

And the TGI ([1]; read-out: Log TGI (converted))?
The TGI was 4.37 µM.

What about the GI50 (SR) of the same compound?
Its GI50 is 0.457 µM.

What about the CC50 (SR; [2]) of the same compound?
The CC50 was 6.76 µM.

What about the TGI (SR; read-out: Log TGI (converted)) of the same compound?
The TGI was 1.86 µM.

And the GI50 (TK-10)?
The GI50 was 1.17 µM.

And the LC50 (TK-10)?
The LC50 was 6.61 µM.

And the TGI (TK-10; read-out: Log TGI (converted))?
Its TGI is 2.82 µM.

And the GI50 (HCT-15)?
Its GI50 is 0.759 µM.

And the CC50 (HCT-15; [2])?
The CC50 was 5.25 µM.

And the TGI (HCT-15; read-out: Log TGI (converted))?
Its TGI is 2.14 µM.

What about the GI50 (NCI/ADR-RES) of the same compound?
Its GI50 is 1.91 µM.

And the LC50 (NCI/ADR-RES)?
The LC50 was 8.91 µM.

And the TGI (NCI/ADR-RES; read-out: Log TGI (converted))?
The TGI was 4.07 µM.

And the GI50 (NCI-H23)?
Its GI50 is 2 µM.

And the CC50 (NCI-H23; [2])?
The CC50 was 9.12 µM.

And the TGI (NCI-H23; read-out: Log TGI (converted))?
Its TGI is 4.27 µM.

And the GI50 (SK-MEL-2)?
Its GI50 is 2.4 µM.

What about the CC50 (SK-MEL-2; [2]) of the same compound?
The CC50 was 37.2 µM.

What about the TGI (SK-MEL-2; read-out: Log TGI (converted)) of the same compound?
The TGI was 5.25 µM.

What about the GI50 (K562) of the same compound?
The GI50 was 2.04 µM.

What about the CC50 (K562; [2]) of the same compound?
Its CC50 is 20.9 µM.

What about the TGI (K562; read-out: Log TGI (converted)) of the same compound?
The TGI was 5.01 µM.

What about the GI50 (NCI-H522) of the same compound?
Its GI50 is 1.74 µM.

What about the CC50 (NCI-H522; [2]) of the same compound?
Its CC50 is 11.2 µM.

And the TGI (NCI-H522; read-out: Log TGI (converted))?
The TGI was 4.17 µM.

What about the GI50 (IGROV-1) of the same compound?
Its GI50 is 2.57 µM.

And the CC50 (IGROV-1; [2])?
Its CC50 is 50.1 µM.

And the TGI (IGROV-1; read-out: Log TGI (converted))?
Its TGI is 8.13 µM.

What about the GI50 (UACC-62) of the same compound?
Its GI50 is 1.74 µM.

What about the CC50 (UACC-62; [2]) of the same compound?
Its CC50 is 5.89 µM.

What about the TGI (UACC-62; read-out: Log TGI (converted)) of the same compound?
The TGI was 3.24 µM.

And the GI50 (HCT-116)?
The GI50 was 0.468 µM.

What about the CC50 (HCT-116; [2]) of the same compound?
Its CC50 is 4.07 µM.

And the TGI (HCT-116; read-out: Log TGI (converted))?
The TGI was 1.62 µM.
